Test [1] has as its system Pyricularia oryzae Cavara KJ301 strain. The class given is in vivo. To be noted: 100 ppm, soil irrigation (10 mL) 24 hours before inoculation.
Test [2] shares this test system. The class given is in vivo. The settings on record: sprayed one day after inoculation.
For test [3] the test system is unchanged. The test is classed as in vivo. The settings on record: sprayed on rice one day before inoculation.
Test [4] relates to Rhizoctonia solani AG-1. Briefly: Protective effect test on rice sheath blight (RSB). The test is classed as in vivo.
The subject of test [5] is Botrytis cinerea. Briefly: Protective effect test on cucumber gray mould (CGM). The class given is in vivo.
Test [6] concerns Phytophthora infestans. The test is classed as in vivo. To be noted: sprayed on tomato one day before inoculation.
The subject of test [7] is Erysiphe graminis f. sp. hordei. The settings on record: in vivo.
In test [8] the test system is Puccinia recondita. To be noted: in vivo.
Test [9] deals with Puccinia recondita. Briefly: Protective effect test on wheat leaf rust (WLR). The test is classed as in vivo.
Test [10] has as its system Erysiphe graminis f. sp. hordei. Briefly: Protective effect test on barley powdery mildew (BPM). The test is classed as in vivo.
For test [11], the system named is Puccinia recondita. Briefly: Systemic effect test on wheat leaf rust. The test is classed as in vivo.
The test system of test [12] is Pythium ultimum. Description: Protective effect test on cucumber damping off (CDO). The test is classed as in vivo. To be noted: soil irrigation (10 mL), disease index after 7 days. The procedure:
The potato mixture was inoculated with a plant pat hogen causing cucumber damping off, Pythium ultimum, incubated at 25° C. for 15 days in a growth chamb e r and used as inoculum. Soil (150 mL) prepared by mixing vermiculite and field soil (1:1) was sterilized and mixed with the potato mixture (1 g) to use it as inoculum. After filling the inoculated soil in the pot (diameter 9 cm), five cucumber seeds (house Baekdadagio® cucumber) were sown in the above pot and irrigated with the agricultural fungicidal compositions (10 mL) prepared at the appropriate concentrations. Seven days after the treating with the agricultural fungicidal compositions, a degree of the disease induction was examined based upon criteria for determining the disease index, and control efficacy was determined according to the above examination. The criteria was listed in the following. Criteria 4: seeds don't germinate due to disease outbreak. 3: a young seedling dies in the middle of emergence. 2: ground surface is narrowed due to disease outbreak. 1: growth is poor due to disease outbreak of partial roots. 0: healthy plant […] For only cucumber damping off, it was examined according to the above-mentioned separate criteria.

In test [13] the test system is Venturia inaequalis. Description: Protective effect test on apple scab (APS). The test is classed as in vivo. The settings on record: apple seedlings treated one day before inoculation.
The test system of test [14] is Colletotrichum lagenarium. Description: Protective effect test on cucumber anthracnose (CUA). The class given is in vivo. To be noted: cucumber treated one day before inoculation.
For test [15], the system named is Sphaerotheca fuliginea. Briefly: Protective effect test on cucumber powdery mildew (CPM). The test is classed as in vivo. The settings on record: sprayed on cucumber one day before inoculation. The procedure:
A plant pathogen, Sphaerotheca fuliginea, was prepared by collecting the diseased leaves of cucumber grown in a vinylhouse, and its spores were suspended in sterilized water. The concentration of the pathogenic spores was adjusted to 10^5 spores/mL and used as inoculum. After a cucumber seed (house ‘Baekdadagi®’ cucumber) was sown in a small pot (diameter 6.5 cm), it was grown in a greenhouse for two weeks and young seedlings with the first true completely open leaf were used for test. After the young seedlings of the cucumber in the small pots were sprayed with agricultural fungicidal compositions prepared at the appropriate concentrations, they were left for 1 day in a greenhouse to dry the fungicidal compositions. The young seedlings of cucumber were inoculated with the prepared pathogenic spores of cucumber powdery mildew by spraying and incubated for 10 days in a green house to induce the disease. A ratio of the diseased areas to total areas of the first true completely open leaves was determined according to the criteria for determining a degree of disease induction. […] For only cucumber damping off, it was examined according to the above-mentioned separate criteria.

Test [16] relates to Erysiphe graminis f. sp. hordei. Description: Systemic effect test on barley powdery mildew. The test is classed as in vivo. The settings on record: soil irrigation (10 mL) 24 hours before inoculation.
In test [17] the test system is Bipolaris maydis. Briefly: Protective effect test on southern corn leaf blight (CLB). The class given is in vivo. To be noted: corn treated one day before inoculation. Here is the method:
A plant pathogen, Bipolaris maydis, was inoculated on the Difco Lima Bean Agar (10 g/L) medium containing 10 g/L dextrose, and incubated at 24° C. with and without fluorescent light for 12 hours each time for 7 days in a growth chamber. After forming spores, the conidiospore was harvested in Tween-20 solution (250 ppm), adjusted at the concentration of 5×10^5 spores/ml and used as inoculum. The southern corn (golden crossbantam 70) for test was grown to be at 4 or 5-leaf stage in a greenhouse. One day after the treating with the agricultural fungicidal compositions, the inoculum was sprayed an young seedlings of the corn, and incubated at 27° C. and 100% relative humidity for 24 hours in a dew chamber to infiltrate the pathogen. The young seedling were incubated at 27° C. and 90% relative humidity for 3 days in a growth chamber to induce the disease. A ratio of diseased areas to total areas of the corn leaves was examined according to the criteria for determining a degree of disease induction.
In the above experiment 2, control value of the compound on the tested pathogens was calculated according to the following mathematical formula 1, and the results were shown in Table 2. For only cucumber damping off, it was examined according to the above-mentioned separate criteria.
Control value(%)=(1—the ratio of diseased area in the treated plant/the ratio of diseased area in the untreated plant)×100

Read-outs that look alike come from different tables or passages of the source.

As to `Cc1cccc2sc3nncn3c12` [A, Tricyclazole], the “Control value (%) RCB S.E. (systemic effect)” value in [1] is given as 87%. For the same compound, in test [2] (100 ppm), the “Control value (%) RCB C.E. (curative effect)” value was found to be 0%. The “Control value (%) RCB” value in test [3] (50 ppm) was 90%.
For the compound `OCC1=C[C@H](N[C@H]2C[C@H](CO)[C@@H](O[C@@H]3O[C@H](CO)[C@@H](O)[C@H](O)[C@H]3O)[C@H](O)[C@H]2O)[C@H](O)[C@@H](O)[C@@H]1O` [B, Validamycin, reference compound], the “Control value (%) RSB” value in test [4] (in vivo) came to 50%.
Turning to `CC12CC1(C)C(=O)N(c1cc(Cl)cc(Cl)c1)C2=O` (stereo not shown) [C, Procymidone, reference compound], the “Control value (%) CGM” value in test [5] (in vivo) is 40%.
As to `COc1ccc(C(=CC(=O)N2CCOCC2)c2ccc(Cl)cc2)cc1OC` [D, Dimethomotph, reference compound], in test [6] (10 ppm), the “Control value (%) TLB” value was determined as 80%.
With `C[Si](Cn1cncn1)(c1ccc(F)cc1)c1ccc(F)cc1` [E, Flusilazole, reference compound], in [7], the “Control value (%) BPM C.E. (curative effect)” value amounted to 81%. Also, the “Control value (%) WLB C.E. (curative effect)” value in test [8] amounted to 97%. Besides, the “Control value (%) WLR” value in test [9] (in vivo) is reported as 85%. The “Control value (%) BPM” value in test [10] (in vivo) was determined as 85%.
With `CO/N=C(/C(=O)OC)c1ccccc1COc1ccccc1C` [F, Kresoxim methyl, reference compound], in test [4] (in vivo), the “Control value (%) RSB” value is 5%. Moreover, in test [7], the “Control value (%) BPM C.E. (curative effect)” value stood at 50%. Further, the “Control value (%) WLB C.E. (curative effect)” value in [8] was 0%. In test [9] (in vivo), the “Control value (%) WLR” value was 93%. The “Control value (%) RCB S.E. (systemic effect)” value in test [1] stood at 0%. Besides, the “Control value (%) RCB C.E. (curative effect)” value in test [2] (10 ppm) is 39%. Moreover, in test [5] (in vivo), the “Control value (%) CGM” value was determined as 10%. Also, the “Control value (%) WLB S.E. (systemic effect)” value in [11] (in vivo) is 0%. The “Control value (%) TLB” value in test [6] (10 ppm) was found to be 57%. Also, the “Control value (%) BPM” value in test [10] (in vivo) turned out to be 94%. In addition, in test [3] (10 ppm), the “Control value (%) RCB” value worked out at 98%.
In the case of `CCCCNC(=O)n1c(NC(=O)OC)nc2ccccc21` [K, Benomyl, reference compound], in [12] (10 ppm), the “Control value (%) CDO” value came out at 20%. For the same compound, in test [13] (10 ppm), the “Control value (%) APS” value is 85%. In addition, the “Control value (%) CUA” value in test [14] (10 ppm) is given as 65%. For the same compound, in test [15] (10 ppm), the “Control value (%) CPM” value worked out at 85%.
With `CNC(=O)/C(=N/OC)c1c(C)cccc1COc1ccccc1C` [The compound of formula 1, N-methyl E-2-((2-methylphenyl)oxymethyl)-6-methylphenylglyoxylamide O-methyl oxime], the “Control value (%) RSB” value is given as 21% in test [4] (2 ppm, sprayed on rice one day before inoculation) and 53% in test [4] (10 ppm, sprayed on rice one day before inoculation). Besides, the “Control value (%) BPM C.E. (curative effect)” value in [7] turned out to be 100%. For the same compound, the “Control value (%) CDO” value is on record as 30% in test [12] (1 ppm), 100% in test [12] (10 ppm) and 100% in test [12] (100 ppm). Moreover, the “Control value (%) WLB C.E. (curative effect)” value in test [8] was determined as 100%. In addition, the “Control value (%) WLR” value in test [9] (2 ppm, sprayed on wheat one day before inoculation) was found to be 99%; in test [9] (10 ppm, sprayed on wheat one day before inoculation), 100%. The “Control value (%) BPM S.E. (systemic effect)” value stood at 67% in [16] (2 ppm), 80% in test [16] (10 ppm) and 100% in test [16] (100 ppm). Moreover, the “Control value (%) RCB S.E. (systemic effect)” value in test [1] is reported as 56%. Moreover, the “Control value (%) APS” value in test [13] (1 ppm) was determined as 60%; in [13] (10 ppm), 92%; in test [13] (100 ppm), 100%. For the same compound, the “Control value (%) RCB C.E. (curative effect)” value in [2] (10 ppm) turned out to be 84%. Also, the “Control value (%) CGM” value in test [5] (2 ppm, sprayed on cucumber one day before inoculation) turned out to be 30%; in test [5] (10 ppm, sprayed on cucumber one day before inoculation), 40%. Also, the “Control value (%) CUA” value in test [14] (1 ppm) turned out to be 80%; in test [14] (10 ppm), 100%; in test [14] (100 ppm), 100%. Moreover, the “Control value (%) CLB” value was 80% in test [17] (10 ppm) and 90% in test [17] (100 ppm). In addition, the “Control value (%) WLB S.E. (systemic effect)” value in [11] (2 ppm, soil irrigation (10 mL) 24 hours before inoculation) was 43%; in test [11] (10 ppm, soil irrigation (10 mL) 24 hours before inoculation) it was 100%; in [11] (100 ppm, soil irrigation (10 mL) 24 hours before inoculation) it was 100%. Further, the figures for the “Control value (%) TLB” value in test [6] (2 ppm) and in test [6] (10 ppm) were 79% and 89%, respectively. In addition, the “Control value (%) BPM” value in test [10] (2 ppm, sprayed on barley one day before inoculation) worked out at 98%; in test [10] (10 ppm, sprayed on barley one day before inoculation), 100%. In addition, the “Control value (%) RCB” value in test [3] (2 ppm) and in test [3] (10 ppm) was 100% throughout. The “Control value (%) CPM” value in test [15] (1 ppm) was found to be 80%; in test [15] (10 ppm) it was 100%; in test [15] (100 ppm), 100%.
For the compound Mancozeb [L, reference compound], the “Control value (%) APS” value in test [13] (100 ppm) is 82%. Further, the “Control value (%) CUA” value in [14] (100 ppm) came to 85%. In [17] (100 ppm), the “Control value (%) CLB” value amounted to 80%.
